The target of one experiment is CYP3A4 (Homo sapiens, UniProt P08684). Nature of the experiment: biochemical. The class given is in vitro ADME. How it is done:
(§1) Inhibition of CYP1A2, CYP2C9, CYP2C19, CYP2D6 and CYP3A4 catalytic activity by (R)-3-((E)-2-(pyrrolidin-3-yl)vinyl)-5-(tetrahydropyran-4-yloxy)pyridine or a slat thereof was assessed using a fluorogenic CYP assay. Probe substrates which fluoresce upon CYP catalyzed oxidation were used to evaluate the degree of inhibition of the test substrate. A single concentration of each probe substrate (at approximately the apparent Km value) and two different concentrations of (R)-3-((E)-2-(pyrrolidin-3-yl)vinyl)-5-(tetrahydropyran-4-yloxy)pyridine hemigalactarate (2 and 20 μM) were tested in duplicate. Fluorescence intensity at selected wavelengths was used as a measure of enzyme activity. Decreased fluorescence in the presence of (R)-3-((E)-2-(pyrrolidin-3-yl)vinyl)-5-(tetrahydropyran-4-yloxy)pyridine or a sat thereof was an indication of inhibition. […] Duplicate samples were run alongside the positive and negative controls. Incubation of test samples was performed at 37° C. Experimental parameters are outlined in Table 2.

The target in another experiment is CYP1A2 (Homo sapiens, UniProt P05177). Nature of the experiment: biochemical. The class given is in vitro ADME. On the procedure:
as §1

In the next experiment the target is CYP2C19 (Homo sapiens, UniProt P33261). Briefly: biochemical. It is filed as in vitro ADME. On the procedure: as §1
Sequence of CYP2C19 (P33261 whole entry): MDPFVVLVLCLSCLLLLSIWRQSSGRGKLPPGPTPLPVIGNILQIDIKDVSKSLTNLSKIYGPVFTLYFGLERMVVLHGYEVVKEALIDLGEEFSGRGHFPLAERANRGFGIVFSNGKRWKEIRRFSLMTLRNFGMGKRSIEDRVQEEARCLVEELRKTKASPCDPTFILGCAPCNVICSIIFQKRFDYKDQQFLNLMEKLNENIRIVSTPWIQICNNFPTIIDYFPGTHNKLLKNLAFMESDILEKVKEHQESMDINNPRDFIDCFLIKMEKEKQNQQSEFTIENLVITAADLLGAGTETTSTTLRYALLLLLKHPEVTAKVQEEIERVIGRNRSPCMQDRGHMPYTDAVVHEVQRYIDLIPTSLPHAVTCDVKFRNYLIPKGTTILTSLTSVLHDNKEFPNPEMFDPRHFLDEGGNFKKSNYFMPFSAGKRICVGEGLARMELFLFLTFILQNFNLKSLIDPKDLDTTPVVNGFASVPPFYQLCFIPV
In a further experiment the target is CYP2C9 (Homo sapiens, UniProt P11712). Nature of the experiment: biochemical. The class given is in vitro ADME. On the procedure: as §1
Sequence of CYP2C9 (P11712 whole entry): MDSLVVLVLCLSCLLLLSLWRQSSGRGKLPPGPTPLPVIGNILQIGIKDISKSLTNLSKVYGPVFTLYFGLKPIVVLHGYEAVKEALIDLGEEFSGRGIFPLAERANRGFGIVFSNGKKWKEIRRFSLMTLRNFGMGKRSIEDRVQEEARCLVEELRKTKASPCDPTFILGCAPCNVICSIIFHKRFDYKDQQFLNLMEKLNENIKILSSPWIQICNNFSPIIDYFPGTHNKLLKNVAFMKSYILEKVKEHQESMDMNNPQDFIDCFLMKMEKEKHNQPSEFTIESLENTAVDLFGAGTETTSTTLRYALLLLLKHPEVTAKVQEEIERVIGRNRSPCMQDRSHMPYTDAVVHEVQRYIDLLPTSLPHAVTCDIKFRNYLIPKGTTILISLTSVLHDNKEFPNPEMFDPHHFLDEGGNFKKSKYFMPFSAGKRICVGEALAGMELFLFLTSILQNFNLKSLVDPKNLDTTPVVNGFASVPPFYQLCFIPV
The next experiment has as its target CYP2D6 (Homo sapiens, UniProt P10635). Briefly: biochemical. The class given is in vitro ADME. How it is done:
as §1

A further experiment has as its target α4β2 (Homo sapiens, UniProt P17787+P43681). Nature of the experiment: In vitro assay at α4β2, response compared to acetylcholine.
Experiment [1] addresses T1, human recombinant α4β2 nicotinic receptors (Homo sapiens, UniProt P17787+P43681).
T1 construct: expressed in transfected cells; host or cells: SH-EP1
Nature of the experiment: Radioligand binding, human recombinant α4β2 in SH-EP1 cellular membranes. On the procedure:
Preparation of membranes from SH-EP1/human α4β2 clonal cells: Cell pellets from 40 150 mm culture dishes were pooled, and homogenized by Polytron (Kinematica GmbH, Switzerland) in 20 milliliters of ice-cold preparative buffer. […] The resulting pellet was re-suspended in 20 mL of ice-cold preparative buffer and stored at −20° C.
Assay. On the day of the assay, the frozen membranes were thawed and spun at 48,000×g for 20 min. The supernatant was decanted and discarded. The pellet was resuspended in Dulbecco's phosphate buffered saline (PBS, Life Technologies) pH 7.4 and homogenized with the Polytron for 6 seconds. Protein concentrations were determined using a Pierce BCA Protein Assay Kit, with bovine serum albumin as the standard (Pierce Chemical Company, Rockford, Ill.).
Incubation was terminated by rapid filtration on a multi-manifold tissue harvester (Brandel, Gaithersburg, Md.) using GF/B filters presoaked in 0.33% polyethyleneimine (w/v) to reduce non-specific binding. Tissue was rinsed 3 times in PBS, pH 7.4. […] Filters were then counted to determine radioactivity bound to the membranes by liquid scintillation counting (2200CA Tri-Carb LSC, Packard Instruments, 50% efficiency or Wallac Trilux 1450 MicroBeta, 40% efficiency, Perkin Elmer).
Data were expressed as disintegrations per minute (DPMs). […]

The subject of experiment [2] is rats with scopolamine-induced cognitive deficits. Briefly: Radial arm maze (RAM), scopolamine-induced deficit. The class given is in vivo, rat. The note with it: 0.03 mg/kg or 0.1 μmol/kg p.o. 0.5 h prior to test trial, scopolamine 0.3±0.1 mg/kg s.c. How it is done:
Working memory was assessed in a radial arm maze (RAM) task. The RAM task was conducted using an automated eight-arm maze (Med Associates, Inc.) The maze was located on a circular table approximately 88 cm above the floor with overhead lighting in a dedicated testing ambient and large, high contrast geometric shapes on the wall. Furthermore, additional visual cues were located at the hub entry into each arm, above each the food hopper and on the ceiling. The central platform measured 30.5 cm in diameter with eight arms (9 cm W×45.7 cm L×16.8 cm H) radiating from it. Automatic guillotine doors were located at the entrance to each runway with a pellet receptacle at the distal end of each arm. White noise will be audible during all training and testing procedures. Activity on the maze was monitored by tracking quantitative activity (generated by infra-red beam breaks) on the computer interface and monitor screen.
Following the baseline assessment and after re-attainment test session criterion, animals were assessed for their sensitivity to chemically-induced cognitive impairment using the muscarinic antagonist scopolamine (0.2-0.4 mg/kg; s.c.). A dose of scopolamine was determined for each animal based on the minimum dose that produced significant and reliable cognitive impairment. […]

A word on the IC50: it is the point on the concentration scale where inhibition reaches its midpoint. For orientation: Ki means the dissociation constant of the complex between target and ligand, obtained from inhibition or displacement.

Sequence of CYP2D6 (P10635 whole entry): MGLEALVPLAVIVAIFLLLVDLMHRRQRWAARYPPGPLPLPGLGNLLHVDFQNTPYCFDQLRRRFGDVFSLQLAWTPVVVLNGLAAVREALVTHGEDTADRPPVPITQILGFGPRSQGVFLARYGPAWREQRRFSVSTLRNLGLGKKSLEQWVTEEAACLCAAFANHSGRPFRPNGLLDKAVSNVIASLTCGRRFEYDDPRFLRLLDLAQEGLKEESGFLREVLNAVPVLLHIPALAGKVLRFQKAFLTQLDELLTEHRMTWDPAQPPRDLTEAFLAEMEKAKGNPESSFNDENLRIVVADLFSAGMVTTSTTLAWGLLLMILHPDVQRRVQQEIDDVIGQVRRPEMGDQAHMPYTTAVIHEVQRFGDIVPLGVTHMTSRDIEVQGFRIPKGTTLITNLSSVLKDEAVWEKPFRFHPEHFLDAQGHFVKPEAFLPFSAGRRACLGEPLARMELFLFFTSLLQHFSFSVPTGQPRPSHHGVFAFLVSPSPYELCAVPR
Sequence of α4β2 (P43681 29-627 limits assumed): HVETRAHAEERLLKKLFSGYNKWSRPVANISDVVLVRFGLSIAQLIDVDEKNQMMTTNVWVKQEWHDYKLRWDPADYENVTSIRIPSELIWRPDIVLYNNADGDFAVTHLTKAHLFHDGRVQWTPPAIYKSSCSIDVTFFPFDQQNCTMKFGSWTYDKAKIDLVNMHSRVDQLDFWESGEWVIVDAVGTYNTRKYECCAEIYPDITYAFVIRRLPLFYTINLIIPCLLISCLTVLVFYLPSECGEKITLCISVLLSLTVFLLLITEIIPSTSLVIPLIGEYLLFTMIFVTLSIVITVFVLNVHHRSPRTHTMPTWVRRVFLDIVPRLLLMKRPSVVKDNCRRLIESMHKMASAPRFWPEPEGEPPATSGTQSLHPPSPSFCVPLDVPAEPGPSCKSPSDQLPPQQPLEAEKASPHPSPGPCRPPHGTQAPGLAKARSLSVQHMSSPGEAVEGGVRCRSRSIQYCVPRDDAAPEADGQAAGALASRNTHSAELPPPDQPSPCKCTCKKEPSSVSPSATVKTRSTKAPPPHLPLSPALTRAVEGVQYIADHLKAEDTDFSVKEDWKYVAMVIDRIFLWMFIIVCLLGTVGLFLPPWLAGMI
Sequence of α4β2 (P17787 26-502): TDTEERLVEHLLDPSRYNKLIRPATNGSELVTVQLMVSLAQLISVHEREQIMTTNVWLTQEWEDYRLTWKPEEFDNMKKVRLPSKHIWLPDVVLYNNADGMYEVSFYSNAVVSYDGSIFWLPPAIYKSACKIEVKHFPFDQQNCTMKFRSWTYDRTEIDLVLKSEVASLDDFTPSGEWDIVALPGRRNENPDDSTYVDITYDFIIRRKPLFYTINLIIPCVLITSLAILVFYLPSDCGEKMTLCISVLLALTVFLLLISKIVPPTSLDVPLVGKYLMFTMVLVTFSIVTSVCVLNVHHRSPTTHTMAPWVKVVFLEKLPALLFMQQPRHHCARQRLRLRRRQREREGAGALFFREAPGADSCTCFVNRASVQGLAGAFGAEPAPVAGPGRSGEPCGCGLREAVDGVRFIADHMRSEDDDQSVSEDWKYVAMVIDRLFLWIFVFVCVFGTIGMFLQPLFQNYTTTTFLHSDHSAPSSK
T1 sequence (P43681 29-627 limits assumed): as the sequence (P43681 29-627 limits assumed) above
T1 sequence (P17787 26-502): as the sequence (P17787 26-502) above
Sequence of CYP3A4 (P08684 whole entry): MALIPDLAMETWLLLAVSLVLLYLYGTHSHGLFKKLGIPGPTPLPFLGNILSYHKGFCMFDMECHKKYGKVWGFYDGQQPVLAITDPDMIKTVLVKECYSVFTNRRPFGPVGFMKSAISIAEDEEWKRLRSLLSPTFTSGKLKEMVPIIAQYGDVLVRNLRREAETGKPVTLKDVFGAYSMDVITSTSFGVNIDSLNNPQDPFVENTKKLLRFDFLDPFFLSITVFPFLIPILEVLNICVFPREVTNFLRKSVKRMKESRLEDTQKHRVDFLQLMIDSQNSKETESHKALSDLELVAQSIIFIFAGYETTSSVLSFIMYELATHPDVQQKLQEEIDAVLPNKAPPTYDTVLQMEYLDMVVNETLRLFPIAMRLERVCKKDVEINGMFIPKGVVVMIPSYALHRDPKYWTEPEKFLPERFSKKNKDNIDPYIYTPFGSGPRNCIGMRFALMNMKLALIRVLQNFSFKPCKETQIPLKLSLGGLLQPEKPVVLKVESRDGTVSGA
Sequence of CYP1A2 (P05177 whole entry): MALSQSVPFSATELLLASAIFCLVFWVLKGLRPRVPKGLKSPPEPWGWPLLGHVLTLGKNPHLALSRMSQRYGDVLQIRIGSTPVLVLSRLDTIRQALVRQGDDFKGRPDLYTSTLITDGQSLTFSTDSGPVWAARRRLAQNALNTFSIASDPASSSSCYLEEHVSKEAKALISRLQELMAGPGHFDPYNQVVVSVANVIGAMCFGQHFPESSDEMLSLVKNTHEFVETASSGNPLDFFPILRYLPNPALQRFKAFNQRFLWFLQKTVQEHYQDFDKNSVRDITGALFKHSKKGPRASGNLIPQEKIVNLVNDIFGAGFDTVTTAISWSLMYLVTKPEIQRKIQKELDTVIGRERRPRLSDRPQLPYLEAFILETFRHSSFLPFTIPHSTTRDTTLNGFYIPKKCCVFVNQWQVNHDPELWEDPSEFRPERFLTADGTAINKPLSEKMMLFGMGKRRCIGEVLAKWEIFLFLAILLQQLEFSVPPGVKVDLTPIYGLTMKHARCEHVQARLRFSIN

With `C(=C\[C@H]1CCNC1)/c1cncc(OC2CCOCC2)c1` [Compound A, (R)-3-((E)-2-(pyrrolidin-3-yl)vinyl)-5-(tetrahydropyran-4-yloxy)pyridine], the IC50 against CYP3A4, against CYP1A2, at CYP2C19, against CYP2C9 and against CYP2D6 was more than 20 µM each time. Further, at α4β2, the “response compared to acetylcholine” value is reported as “twice as great”. The Ki in experiment [1] worked out at 0.002 µM. Moreover, the “RAM effect on scopolamine-induced cognitive deficits” value is given as “overcomes scopolamine induced deficits” in experiment [2] and “able to reverse scopolamine-induced cognitive deficits” in experiment [2] (listed as (R)-3-((E)-2-(Pyrrolidin-3-yl)vinyl)-5-(tetrahydropyran-4-yloxy)pyridine).
